Test results reported in patent US20120115827A1, “3-AMINOBENZAMIDE COMPOUNDS AND VANILLOID RECEPTOR SUBTYPE 1 (VR1) INHIBITORS” (Japan Tobacco Inc., priority 2004, published 2012).
Counter-ions that a name gives are not always drawn.

Target: T1, human VR1 (Homo sapiens, UniProt Q8NER1)
T1 construct: expressed in transfected cells
Assay: Inhibition of Ca2+ entry in cells caused by proton (VR1 agonist)
Assay type: cell-based
Conditions: Rat glioma (C6BU1) cells stably expressing human VR1; proton stimulation to pH 5.5; Fura 2-AM fluorescence; read-out: In vitro IC50
Method: The assay for evaluation of VR1 inhibition by the inventive compounds will be described below. The assay was intended to evaluate in vitro inhibition of Ca^2+ entry in cells caused by proton, one of the VR1 agonists.
Rat glioma (C6BU1) cells stably expressing human VR1 were suspended in 20 mM MES buffer (at pH 6.8, contg. 20 mM 2-morpholinoethanesulfonate (referred to as MES hereinafter), 115 mM NaCl, 5 mM KCl, 1 mM MgCl2 and 14 mM D-glucose) to make a cell density of 1×10^6 cells/mL. A fluorescent dye, Fura 2-AM solution (Dojindo Corporate, Cat. No. 343-05401) was added to the suspension to make a 5 μM concentration thereof. Further, Pluronic F-127 (Wako Pure Chemical Industries, Ltd., Cat. No. P6866) was added to make a 0.1% content thereof. Then, the suspension was incubated at 37° C. for 30 min. The cells were harvested and washed three times with 20 mM MES buffer. The cells were suspended again to make a cell density of 5×10^5 cells/mL. A 500-μL portion of the suspension was taken with a cuvette (MC MEDICAL, INC., Cat. No. SSR3121), to which […] MES buffer containing 250 mM CaCl2 was added to incorporate Ca^2+ into the cells. At the same time, 5 μL of a test compound solution (in a range of 100 μM to 10 nM in DMSO) was also added to provide a final concentration thereof in a range of 1 μM to 0.1 nM. Alternatively, 5 μl of DMSO was added as control to provide a final concentration of 1% DMSO. The suspension was set in an intracellular ionometer (CAF-110; JASCO) 10 min after those additions. The cells were stimulated with protons by addition of 60 μL of 20 mM MES buffer at pH 1.1 to the suspension to set its pH at 5.5. The activity of the test compound was determined as a difference between the minimum of fluorescence intensity before agonist stimulation and its maximum after the stimulation. The value of IC50 was derived from percentage of inhibition by the test compound compared with the control.

T1 sequence (Q8NER1 whole entry): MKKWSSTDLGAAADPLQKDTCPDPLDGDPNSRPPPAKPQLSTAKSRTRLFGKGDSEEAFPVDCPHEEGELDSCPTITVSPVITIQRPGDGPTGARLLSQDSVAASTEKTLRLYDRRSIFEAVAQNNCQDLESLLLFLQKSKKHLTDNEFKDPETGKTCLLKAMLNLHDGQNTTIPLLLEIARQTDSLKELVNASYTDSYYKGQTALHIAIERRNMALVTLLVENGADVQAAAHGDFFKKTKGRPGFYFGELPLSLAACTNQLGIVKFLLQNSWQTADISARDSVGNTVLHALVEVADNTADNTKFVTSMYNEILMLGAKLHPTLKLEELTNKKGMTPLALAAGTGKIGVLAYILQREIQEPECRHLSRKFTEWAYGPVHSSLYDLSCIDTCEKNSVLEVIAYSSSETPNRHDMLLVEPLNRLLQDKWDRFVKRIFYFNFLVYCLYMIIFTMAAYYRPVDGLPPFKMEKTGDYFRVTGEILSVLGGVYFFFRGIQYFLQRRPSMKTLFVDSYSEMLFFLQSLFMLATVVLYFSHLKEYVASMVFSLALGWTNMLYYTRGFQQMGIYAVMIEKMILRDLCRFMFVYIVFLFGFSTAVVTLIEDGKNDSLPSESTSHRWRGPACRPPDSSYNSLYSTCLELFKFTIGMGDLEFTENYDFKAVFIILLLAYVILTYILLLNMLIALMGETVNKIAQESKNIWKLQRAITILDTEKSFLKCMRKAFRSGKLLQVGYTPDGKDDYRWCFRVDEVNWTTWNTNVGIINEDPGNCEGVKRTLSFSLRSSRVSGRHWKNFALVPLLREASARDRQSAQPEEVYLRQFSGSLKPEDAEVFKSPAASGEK

| Structure (SMILES) | IC50 |
| --- | --- |
| CN(c1cccc(C(=O)Nc2ccc(C(C)(C)C)cc2)c1)c1ccccn1 [Example 2, N-(4-tert-butylphenyl)-3-[N-(pyridin-2-yl)-N-methyl-amino]benzamide, hydrochloride salt] | 100 to 1000 nM |
| CCN(c1cccc(C(=O)Nc2ccc(C(C)(C)C)cc2)c1)c1ncccc1Cl [Example 3, N-(4-tert-butylphenyl)-3-[N-(3-chloropyridin-2-yl)-N-ethyl-amino]benzamide] | ≤ 100 nM |
| CN(c1cc(C(=O)Nc2ccc(C(C)(C)C)cc2)ccc1Oc1ccccc1)c1ncccc1Cl [Example 5, N-(4-tert-butylphenyl)-3-[N-(3-chloropyridin-2-yl)-N-methyl]amino-4-phenoxybenzamide] | ≤ 100 nM |
| CN(c1cc(C(=O)Nc2ccc(C(C)(C)C)cc2)ccc1-c1ccccc1)c1ncccc1Cl [Example 8, N-(4-tert-butylphenyl)-3-[N-(3-chloropyridin-2-yl)-N-methyl-amino]-4-phenylbenzamide] | ≤ 100 nM |
| CCN(c1cc(C(=O)Nc2ccc(C(C)(C)C)cc2)ccc1OC)c1ncccc1Cl [Example 10, N-(4-tert-butylphenyl)-3-[N-(3-chloropyridin-2-yl)-N-ethyl]amino-4-methoxybenzamide] | ≤ 100 nM |
| COc1ccc(C(=O)Nc2ccc(C(C)(C)C)cc2)cc1N(c1ncccc1Cl)C(C)C [Example 11, N-(4-tert-butylphenyl)-3-[N-(3-chloropyridin-2-yl)-N-isopropyl]amino-4-methoxybenzamide] | ≤ 100 nM |
| CN(c1ccccn1)c1cc(C(=O)Nc2ccc(C(C)(C)C)cc2)ccc1Cl [Example 13, N-(4-tert-butylphenyl)-4-chloro-3-[N-(pyridin-2-yl)-N-methyl-amino]benzamide] | 100 to 1000 nM |
| CC(C)Oc1ccc(C(=O)Nc2ccc(C(C)(C)C)cc2)cc1N(C)c1ncccc1Cl [Example 16, N-(4-tert-butylphenyl)-3-[N-(3-chloropyridin-2-yl)-N-methyl-amino]-4-isopropoxybenzamide] | ≤ 100 nM |
| CN1c2cc(C(=O)Nc3ccc(C(C)(C)C)cc3)ccc2Oc2cccnc21 [Example 17, N-(4-tert-butylphenyl)-10-methyl-10H-benzo[b]pyrido[2,3-e][1,4]oxazine-8-carboxamide] | ≤ 100 nM |
| CN(c1cc(C(=O)Nc2ccc(C(C)(C)C)cc2)ccc1OCCO)c1ncccc1Cl [Example 18, N-(4-tert-butylphenyl)-3-[N-(3-chloropyridin-2-yl)-N-methyl-amino]-4-(2-hydroxyethyl)oxybenzamide] | ≤ 100 nM |
| CN(c1cc(C(=O)Nc2ccc(C(C)(C)C)cc2)ccc1OCC(N)=O)c1ncccc1Cl [Example 20, N-(4-tert-butylphenyl)-4-carbamoylmethyloxy-3-[N-(3-chloropyridin-2-yl)-N-methyl-amino]benzamide] | ≤ 100 nM |
| CNC(=O)COc1ccc(C(=O)Nc2ccc(C(C)(C)C)cc2)cc1N(C)c1ncccc1Cl [Example 21, N-(4-tert-butylphenyl)-3-[N-(3-chloropyridin-2-yl)-N-methyl-amino]-4-(N-methylcarbamoylmethyl)oxybenzamide] | ≤ 100 nM |
| CN(C)C(=O)COc1ccc(C(=O)Nc2ccc(C(C)(C)C)cc2)cc1N(C)c1ncccc1Cl [Example 22, N-(4-tert-butylphenyl)-3-[N-(3-chloropyridin-2-yl)-N-methyl-amino]-4-(N,N-dimethylcarbamoylmethyl)oxybenzamide] | 100 to 1000 nM |
| CN(c1cc(Cl)cc(C(=O)Nc2ccc(C(C)(C)C)cc2)c1)c1ncccc1Cl [Example 23, N-(4-tert-butylphenyl)-5-chloro-3-[N-(3-chloropyridin-2-yl)-N-methyl]aminobenzamide] | ≤ 100 nM |
| COc1ccc(C(=O)Nc2ccc(C(C)(C)C)cc2)cc1N(CCO)c1ncccc1Cl [Example 28, N-(4-tert-butylphenyl)-3-[N-(3-chloropyridin-2-yl)-N-(2-hydroxyethyl)]amino-4-methoxybenzamide] | ≤ 100 nM |
| COCCN(c1cc(C(=O)Nc2ccc(C(C)(C)C)cc2)ccc1Cl)c1ncccc1Cl [Example 29, N-(4-tert-butylphenyl)-4-chloro-3-[N-(3-chloropyridin-2-yl)-N-(2-methoxyethyl)amino]benzamide] | ≤ 100 nM |
| CC(C)(C)c1ccc(NC(=O)c2ccc(Cl)c(N(CCO)c3ncccc3Cl)c2)cc1 [Example 30, N-(4-tert-butylphenyl)-4-chloro-3-[N-(3-chloropyridin-2-yl)-N-(2-hydroxyethyl)amino]benzamide] | ≤ 100 nM |
| O=C(Nc1ccc(C(F)(F)F)cc1)c1ccc(Cl)c(N(CCO)c2ncccc2Cl)c1 [Example 31, 4-chloro-3-[N-(3-chloropyridin-2-yl)-N-(2-hydroxyethyl)amino]-N-(4-trifluoromethylphenyl)-benzamide, hydrochloride salt] | ≤ 100 nM |
| O=C(Nc1ccc(OC(F)(F)F)cc1)c1ccc(Cl)c(N(CCO)c2ncccc2Cl)c1 [Example 32, 4-chloro-3-[N-(3-chloropyridin-2-yl)-N-(2-hydroxyethyl)amino]-N-(4-trifluoromethoxyphenyl)benzamide, hydrochloride salt] | ≤ 100 nM |
| CN(c1cccc(C(=O)Nc2ccc(C(C)(C)C)cc2)c1)c1ccccc1Cl [Example 33, N-(4-tert-butylphenyl)-3-[N-(2-chlorophenyl)-N-methyl-amino]benzamide] | ≤ 100 nM |
| CC(C)COc1ccc(NC(=O)c2ccc(Cl)c(N(CCO)c3ncccc3Cl)c2)cc1 [Example 35, 4-chloro-3-[N-(3-chloropyridin-2-yl)-N-(2-hydroxyethyl)amino]-N-(4-isobutyloxyphenyl)benzamide, hydrochloride salt] | ≤ 100 nM |

The remaining lines, values ahead:

| IC50 | Structure (SMILES) |
| --- | --- |
| ≤ 100 nM | CN(c1cccc(C(=O)Nc2ccc(C(C)(C)C)cc2)c1)c1ncccc1Cl [Example 1, N-(4-tert-butylphenyl)-3-[N-(3-chloropyridin-2-yl)-N-methyl-amino]benzamide, hydrochloride salt] |
| ≤ 100 nM | COc1ccc(C(=O)Nc2ccc(C(C)(C)C)cc2)cc1N(C)c1ncccc1Cl [Example 4, N-(4-tert-butylphenyl)-3-[N-(3-chloropyridin-2-yl)-N-methyl]amino-4-methoxybenzamide] |
| ≤ 100 nM | Cc1c(C(=O)Nc2ccc(C(C)(C)C)cc2)cccc1N(C)c1ncccc1Cl [Example 6, N-(4-tert-butylphenyl)-3-[N-(3-chloropyridin-2-yl)-N-methyl-amino]-2-methylbenzamide] |
| ≤ 100 nM | Cc1ccc(C(=O)Nc2ccc(C(C)(C)C)cc2)cc1N(C)c1ncccc1Cl [Example 7, N-(4-tert-butylphenyl)-3-[N-(3-chloropyridin-2-yl)-N-methyl-amino]-4-methylbenzamide] |
| ≤ 100 nM | CN(c1cc(C(=O)Nc2ccc(C(C)(C)C)cc2)ccc1F)c1ncccc1Cl [Example 9, N-(4-tert-butylphenyl)-3-[N-(3-chloropyridin-2-yl)-N-methyl-amino]-4-fluorobenzamide] |
| ≤ 100 nM | CN(c1cc(C(=O)Nc2ccc(C(C)(C)C)cc2)ccc1Cl)c1ncccc1Cl [Example 12, N-(4-tert-butylphenyl)-4-chloro-3-[N-(3-chloropyridin-2-yl)-N-methyl-amino]benzamide] |
| ≤ 100 nM | COCOc1ccc(C(=O)Nc2ccc(C(C)(C)C)cc2)cc1N(C)c1ncccc1Cl [Example 14, N-(4-tert-butylphenyl)-3-[N-(3-chloropyridin-2-yl)-N-methyl-amino]-4-methoxymethyloxybenzamide] |
| ≤ 100 nM | CN(c1cc(C(=O)Nc2ccc(C(C)(C)C)cc2)ccc1O)c1ncccc1Cl [Example 15, N-(4-tert-butylphenyl)-3-[N-(3-chloropyridin-2-yl)-N-methyl-amino]-4-hydroxybenzamide] |
| 100 to 1000 nM | CN(c1ccc(Cl)c(C(=O)Nc2ccc(C(C)(C)C)cc2)c1)c1ncccc1Cl [Example 24, N-(4-tert-butylphenyl)-2-chloro-5-[N-(3-chloropyridin-2-yl)-N-methyl]aminobenzamide] |
| 100 to 1000 nM | CN(c1cccc(C(=O)Nc2ccc(C(C)(C)C)cc2)c1O)c1ncccc1Cl [Example 25, N-(4-tert-butylphenyl)-3-[N-(3-chloropyridin-2-yl)-N-methyl]amino-2-hydroxybenzamide] |
| ≤ 100 nM | COc1c(C(=O)Nc2ccc(C(C)(C)C)cc2)cccc1N(C)c1ncccc1Cl [Example 26, N-(4-tert-butylphenyl)-3-[N-(3-chloropyridin-2-yl)-N-methyl]amino-2-methoxybenzamide] |
| ≤ 100 nM | CN(c1cccc(C(=O)Nc2ccc(C(C)(C)C)cc2)c1OCCO)c1ncccc1Cl [Example 27, N-(4-tert-butylphenyl)-3-[N-(3-chloropyridin-2-yl)-N-methyl-amino]-2-(2-hydroxyethyl)oxybenzamide] |
